Experimental data published in patent US20210308028A1, “Compositions and Methods for Maintaining and Protecting Tissue Integrity and Barrier Function” (Colgate-Palmolive Company, priority 2020, published 2021).
Structures can show the parent of a compound that is named as a salt.

How the values were obtained:
[1] = test system: P. gingivalis collagenase; assay: Proteolytic assay: collagen DQ degradation by P. gingivalis culture supernatant; format: biochemical, Porphyromonas gingivalis; conditions: Example 6, FIGS. 35, 38, 41; over 5 hours
Description: To determine the effects of formulations tested on the proteinase activity of P. gingivalis, a 48-h culture was centrifuged at 10 000×g for 10 min. […] The fluorescence corresponding to collagen degradation was monitored using a Synergy 2 microplate reader, with the excitation and emission wavelengths set at 495 nm and 525 nm, respectively. Test compounds or the fluorescent substrate alone were used as controls. For the proteolytic assay, the following ratio was used: 40% P. gingivalis supernatant+40% test compounds+20% DQ collagen. […]
To determine the effects of the Dual Zinc plus Arginine aqueous solution and dentifrice on the proteinase activity of P. gingivalis, a 48-h culture was centrifuged at 10 000×g for 10 min. Assay mixtures containing equal volumes of P. gingivalis culture supernatant, the fluorescent substrate collagen DQ™ (100 μg/mL; Molecular Probes, Eugene, Oreg., USA), and the Dual Zinc […] The fluorescence corresponding to collagen degradation was monitored using a Synergy 2 microplate reader, with the excitation and emission wavelengths set at 495 nm and 525 nm, respectively. Test compounds or the fluorescent substrate alone were used as controls. Leupeptin (1 μM) was used as a positive inhibitory control.

[2] = test system: B11 gingival keratinocytes treated with TNF-α; assay: FITC-dextran paracellular transport with TNF-α challenge; format: cell-based, human; conditions: TNF-α 100 ng/ml, 48-h exposure
Description: The ability of test composition samples to enhance epithelial barrier integrity was assessed by monitoring the paracellular transport of FITC-conjugated 4.4-kDa dextran (FD-4; Sigma-Aldrich Canada Ltd.) across the keratinocyte layer. Briefly, B11 cells were cultured on Transwell filters, and FD-4 ([…] in culture medium) was added in the apical compartment in the presence of the test composition under investigation. Fluorescence in the basolateral compartment was measured at 0, 4, 8, 24, and 48 h using a Synergy 2 microplate reader (BioTek Instrument, Winooski, Vt., USA).
(§1) Assays exposed cells to either TNFα only or TNFα+test composition. TNFα is known to cause tissue damage. A stock solution of recombinant TNF-α is prepared in sterile distilled water at 100 μg/ml. Thereafter, dilutions are made in keratinocyte culture medium. First dilution is 1/1000 to obtain 100 ng/ml. TNF-α and the test compounds are added simultaneously.
Gingival keratinocytes were cultured in the apical chamber of Transwell™ inserts as described above. Immediately after adding fluorescein isothiocyanate-conjugated dextran of 4.4 kDa (FD-4; 1 mg/ml in culture medium) to the apical compartment, the formulations under investigation were added in presence of recombinant TNF-α (100 ng/ml). Fluorescence in the basolateral compartment was recorded after 0, 2, 6, 24, and 48 h of incubation using a Synergy 2 microplate reader (BioTek Instruments; Winooski, Vt., USA).

gingival keratinocytes [3] = assay: MTT colorimetric cell viability assay; format: cell-based, human
Description: The tight junction integrity of the B11 gingival keratinocytes was assessed by determining the transepithelial electrical resistance (TER). Briefly, B11 keratinocytes were seeded onto Costar™ Transwell™ clear polyester membrane inserts (6.5-mm diameter; 0.4-μm pore size; Corning Co., Cambridge, Mass., USA) at 3×10^5 cells per insert. The basolateral and apical compartments were filled with 0.6 mL and 0.1 mL of complete K-SFM, respectively, and the cultures were incubated for 3 days at 37° C. in a 5% CO2 atmosphere. The conditioned medium was then replaced with fresh antibiotic-free K-SFM. Following a further incubation (16 h), the TER values were measured using an Ohm/voltmeter (EVOM2; World Precision Instruments, Sarasota, Fla., USA) at 0, 2, 6, 24, and 48 h. Resistance values were calculated in Ohms (Ω)/cm^2 by multiplying the resistance values by the filter surface area. Results were expressed as a percentage of the basal control values measured at time 0 h (100% values) for each condition. […] The effect of these treatments on cell viability was assessed using an MTT (3-[4,5-[…]-2-yl]-2,5diphenyltetrazolim bromide) colorimetric assay, according to the manufacturer's instructions (Roche Diagnostics, Laval, QC, Canada).

[4] = test system: B11 gingival keratinocytes treated with TNF-α; assay: TER with TNF-α challenge; format: cell-based, human; conditions: TNF-α 100 ng/ml
Description: Tight junction integrity was assessed by determining the trans-epithelial electrical resistance (TER). B11 gingival keratinocytes were seeded onto Costar™ Transwell™ clear polyester membrane inserts (6.5-mm diameter; 0.4-μm pore size; Corning Co., Cambridge, Mass., USA) at 3×10^5 cells per insert. The basolateral and apical compartments were filled with 0.6 mL and 0.1 mL of complete K-SFM, respectively. Following a 72-h incubation, the conditioned medium was replaced with antibiotic-free K-SFM, and the cells were incubated for a further 16 h. The TER values were measured using an Ohm/voltmeter (EVOM2; World Precision Instruments, Sarasota, Fla., USA) at 0, 4, 8, 24, 48, and 72 h. Resistance values were calculated in Ohms (Ω)/cm 2 by multiplying the resistance values by the filter surface area. Results were expressed as percentage of the basal control values measured at time 0 h (100% values) for each condition.
as §1
Keratinocyte barrier integrity was determined by monitoring transepithelial electrical resistance (TER). Briefly, keratinocytes (3×10^5 cells per insert; 0.1 ml) were seeded in the apical compartment of Costar™ Transwell™ clear polyester membrane inserts (6.5 mm in diameter, 0.4 μm pore size; Corning Co., Cambridge, Mass., USA), while the basolateral compartment was filled with 0.6 ml of culture medium. After 72-h of incubation, the conditioned culture medium was replaced with fresh antibiotic-free K-SFM, and the cells were further incubated for 16 h prior treating the cells. Recombinant human TNF-α (100 ng/ml; AnaSpec, Fremont, USA) and the formulations (final dilutions of 1/500, 1/1000, and 1/2000 (v/v for the aqueous solution; w/v for the dentifrice) under investigation were added to the apical compartment. The TER values were monitored using an ohm/voltmeter (EVOM^2; World Precision Instruments, Sarasota, Fla., USA) after 0, 6, 24, and 48 h of incubation. The TER values in Ohms (Ω)/cm^2 were determined by multiplying the resistance values by the surface area of the membrane filter. Results are expressed as the percentage of the basal control value measured at time 0-h (100% value).

gingival keratinocytes [5] = assay: Keratinocyte proliferation (CellTracker Green CMFDA); format: cell-based, human; conditions: TNF-α 100 ng/ml
Description: Gingival keratinocytes were seeded into wells (20,000 cells per well) of a 96-well microplate (0.1 ml/well) and incubated overnight at 37° C. in a 5% CO2 atmosphere to allow cell adhesion. The culture medium was then removed, and the cells were treated or not with TNF-α (100 ng/ml) with or without the formulations under investigation for 72 h at 37° C. in a 5% CO2 atmosphere. Cell proliferation was measured using the fluorescent CellTracker™ Green CMFDA (5-chloromethylfluorescein diacetate) Dye according to the manufacturer's instructions (Thermo Fisher Scientific). Untreated control cells were assigned a value of 100%. Briefly, after 24 h of stimulation, the supernatant was removed and the cells were washed with PBS. […] Fluorescent keratinocytes were also visualized using an inverted Olympus FS X100 fluorescent microscope.

[6] = test system: Mattek Epigingival tissues; assay: TER of Epigingival tissues upon sodium lauryl sulfate (SLS) challenge; format: cell-based, human
From the text: Cell junctions are intercellular pathways that selectively permit the movement of molecules through cellular layers. In terms of biological function, cell junctions form a barrier between apical and basolateral cell surfaces and are crucial in the development and function of epithelial tissues. The ion permeability of cell junctions can be measured through a voltmeter in the form of Trans Epithelial Electric Resistance (TER). Measurements are quickly determined through an electrode with little to no disturbance to the cell layers. The resistance correlates to the integrity of the tissue, and confluent tissue layers with intact cell junctions lead to higher TER readings.
Epigingival tissues were purchased from Mattek Corporation for use in the experiment. These multilayered epithelial cells imitate human gingival tissue in-vivo and can withstand high concentrations of toothpaste solutions. Once the tissues arrived in the laboratory, individual tissues were reconstituted in 1 mL of Mattek provided GIN-100 maintenance medium overnight at 37° C. and 5% CO2 before testing of samples. The medium was changed every day after treatment.
TER measurement experiment was performed comparing the neat active ingredients in solution and their effects on the physical integrity of Mattek Epigingival tissues. […]

[7] = test system: gingival keratinocyte barrier; conditions: previously reported; cited from earlier work
[8] = test system: intestinal mucosal barrier; conditions: reported; cited from earlier work
[9] = test system: in vitro oral mucosa model; conditions: Rybakovsky 2017; cited from earlier work
[10] = test system: intestinal epithelial barrier; conditions: Sarkar 2019; in vivo (mouse) and in vitro models; cited from earlier work

Molecule: CC(=O)N[C@@H](CC(C)C)C(=O)N[C@@H](CC(C)C)C(=O)N[C@H](C=O)CCCNC(=N)N [Leupeptin, reference compound]
- inhibition of P. gingivalis collagenase activity [1]: inhibited P. gingivalis collagenase activity

Molecule: TNF-α
- increase of FD-4 transport by TNF-α [2]: 50.8%
- viability of gingival keratinocytes (MTT) (gingival keratinocytes [3]): no significant loss of cell viability
- decrease of TER by TNF-α ([4]; 6 h): 25.8%
- decrease of TER by TNF-α ([4]; 24 h): 49.3%
- decrease of TER by TNF-α ([4]; 48 h): 85.1%
- reduction of cell proliferation by TNF-α (gingival keratinocytes [5]): 30.2%

Molecule: CCCCCCCCCCCCOS(=O)(=O)[O-].[Na+] [SLS, Sodium Lauryl Sulfate, reference compound]
- tissue permeability after SLS treatment ([6]; 0.5% SLS solution for 2 minutes): increase in tissue permeability

Molecule: Nc1nc(N)nc(-c2cc(Cl)ccc2Cl)n1 [irsogladine maleate]
- protection of gingival keratinocyte barrier against TNF-α-induced damage [7]: reversed the TNF-α-induced disruption of the gingival epithelial barrier

Molecule: N=C(N)NCCC[C@H](N)C(=O)O [Arginine, arginine]
- intestinal mucosal barrier functions [8]: improve the intestinal mucosal barrier functions
- effect on SLS-induced increase in tissue permeability (TER ratio) ([6]; tissues treated 3x over 3 days, then 0.5% SLS for 2 minutes, FIGS. 1-4): minimal effect

Molecule: theaflavins
- protection of gingival keratinocyte barrier against TNF-α-induced damage [7]: prevented epithelial barrier disruption

Molecule: epigallocatechin-3-gallate
- protection of gingival keratinocyte barrier against TNF-α-induced damage [7]: prevented epithelial barrier disruption

Molecule: [Zn] [zinc]
- epithelial barrier function (transepithelial electrical resistance) [9]: improve epithelial barrier function
- protection of intestinal epithelial barrier from Shigella flexneri [10]: allows protection of the intestinal epithelial barrier from damage mediated by the pathogen Shigella flexneri
